{"source": "patent US20110105540A1", "about": "“2-AMINO-9-[4-(4-METHOXY-PHENOXY)-PIPERIDIN-1-YL]-4-PHENYL-INDENO[1,2-D]PYRIMIDIN-5-ONE AND ITS USE AS A HIGHLY SELECTIVE ADENOSINE A2a RECEPTOR ANTAGONIST” (priority 2009, published 2011)", "key": {"[1]": {"biological_target": "T1, human adenosine A2A receptor (Homo sapiens, UniProt P29274)", "T1 construct": "expressed in transfected cells; host or cells: CHO-K1", "T1 sequence (P29274 whole entry)": "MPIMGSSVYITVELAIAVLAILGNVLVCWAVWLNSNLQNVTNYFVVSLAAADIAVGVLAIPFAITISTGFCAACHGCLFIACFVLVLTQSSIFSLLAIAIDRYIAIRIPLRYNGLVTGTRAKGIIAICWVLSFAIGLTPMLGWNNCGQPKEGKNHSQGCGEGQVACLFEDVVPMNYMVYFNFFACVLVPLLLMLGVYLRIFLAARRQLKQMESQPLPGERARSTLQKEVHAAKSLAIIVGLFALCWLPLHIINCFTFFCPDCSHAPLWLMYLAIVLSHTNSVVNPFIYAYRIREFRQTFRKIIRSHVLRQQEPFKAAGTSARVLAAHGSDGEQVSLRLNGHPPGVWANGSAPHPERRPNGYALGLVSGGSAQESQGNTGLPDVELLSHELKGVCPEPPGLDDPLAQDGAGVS", "test": "Adenosine A2A Receptor Functional Assay (A2AGAL2)", "assay_type": "cell-based", "protocol": "To initiate the functional assay, cryopreserved CHO-K1 cells overexpressing the human adenosine A2A receptor and containing a cAMP inducible beta-galactosidase reporter gene were thawed, centrifuged, DMSO containing media removed, and then seeded with fresh culture media into clear 384-well tissue culture treated plates (BD #353961) at a concentration of 10K cells/well. Prior to assay, these plates were cultured for two days at 37° C., 5% CO2, 90% Rh. On the day of the functional assay, culture media was removed and replaced with 45 μL assay medium (Hams/F-12 Modified (Mediatech #10-080CV) supplemented w/0.1% BSA). Test compounds were diluted and 11 point curves created at a 1000× concentration in 100% DMSO. Immediately after addition of assay media to the cell plates, 50 nL of the appropriate test compound antagonist or agonist control curves were added to cell plates using a Cartesian Hummingbird. Compound curves were allowed to incubate at room temperature on cell plates for approximately 15 minutes before addition of a 15 nM NECA (Sigma E2387) agonist challenge (5 μL volume). […]\nThe colorimetric reaction was stopped with the addition of 60 μL/well 1M sodium carbonate. Plates were counted at 405 nm on a SpectraMax Microplate Reader (Molecular Devices). Data was analyzed in Microsoft Excel and IC/EC50 curves were fit using a standardized macro."}, "[2]": {"biological_target": "T2, human adenosine A1 receptor (Homo sapiens, UniProt P30542)", "T2 construct": "expressed in transfected cells; host or cells: CHO-K1", "T2 sequence (P30542 1-326)": "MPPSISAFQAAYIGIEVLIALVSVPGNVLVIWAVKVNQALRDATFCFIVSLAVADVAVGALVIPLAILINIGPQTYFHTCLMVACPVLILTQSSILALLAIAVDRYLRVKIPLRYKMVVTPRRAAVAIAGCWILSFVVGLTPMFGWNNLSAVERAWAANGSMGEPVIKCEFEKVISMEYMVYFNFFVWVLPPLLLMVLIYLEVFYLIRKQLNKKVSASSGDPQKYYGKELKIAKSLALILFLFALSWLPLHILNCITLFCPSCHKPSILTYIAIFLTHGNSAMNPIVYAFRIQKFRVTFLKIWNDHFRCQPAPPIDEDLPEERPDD", "test": "Adenosine A1 Receptor Functional Assay (A1GAL2)", "assay_type": "cell-based", "conditions": "CHO-K1 cells overexpressing human A1 receptor, cAMP inducible beta-galactosidase reporter, 4 nM r-PIA/1 uM Forskolin agonist challenge", "protocol": "To initiate the functional assay, cryopreserved CHO-K1 cells overexpressing the human adenosine A1 receptor and containing a cAMP inducible beta-galactosidase reporter gene were thawed, centrifuged, DMSO containing media removed, and then seeded with fresh culture media into clear 384-well tissue culture treated plates (BD #353961) at a concentration of 10K cells/well. Prior to assay, these plates were cultured for two days at 37° C., 5% CO2, 90% Rh. On the day of the functional assay, culture media was removed and replaced with 45 μL assay medium (Hams/F-12 Modified (Mediatech #10-080CV) supplemented w/0.1% BSA). Test compounds were diluted and 11 point curves created at a 1000× concentration in 100% DMSO. Immediately after addition of assay media to the cell plates, […] of the appropriate test compound antagonist or agonist control curves were added to cell plates using a Cartesian Hummingbird. Compound curves were allowed to incubate at room temperature on cell plates for approximately 15 minutes before addition of a 4 nM r-PIA (Sigma P4532)/1 uM Forskolin (Sigma F3917) agonist challenge (5 μL volume). […] Plates were counted at 405 nm on a SpectraMax Microplate Reader (Molecular Devices). Data was analyzed in Microsoft Excel and IC/EC50 curves were fit using a standardized macro."}}, "data": [{"smiles": "COc1ccc(OC2CCN(c3cccc4c3-c3nc(N)nc(-c5ccccc5)c3C4=O)CC2)cc1", "note": "[Example A, 2-Amino-9-[4-(4-methoxy-phenoxy)-piperidin-1-yl]-4-phenyl-indeno[1,2-d]pyrimidin-5-one]", "values": [{"measurement": "IC50", "setting": "[1]; CHO-K1 cells overexpressing human A2A receptor, cAMP inducible beta-galactosidase reporter, 15 nM NECA agonist challenge", "value": 0.0023, "unit": "µM"}, {"measurement": "A1/A2A", "setting": "[1]; ratio of A1Gal2 to A2AGal2 values (selectivity for A2A over A1)", "value": 3173.91}, {"measurement": "IC50", "setting": "[2]", "value": 7.3, "unit": "µM"}]}]}
